Publication PMC9981719, “A novel designed membrane-active peptide for the control of foodborne Salmonella enterica serovar Typhimurium” (Scientific Reports, 2023)
Entries after “also recorded” stand apart in the source; their conditions may differ. Where no end group is shown, it is not given here.

Columns and labels:
S. Typhimurium ATCC13311 = assay type: cell-based, Salmonella enterica serovar Typhimurium; conditions: at MIC and 2 × MIC
Protocol: Bacterial killing kinetics of A11 were investigated against S. Typhimurium as described previously. S. Typhimurium ATCC13311 was grown in TSB at 37 °C until reaching the exponential phase. […] The mixture was sampled at 1, 2, 4, 6, 8, 12 and 24 h, and subsequently tenfold serially diluted in 1 × PBS and plated in triplicate on Mueller–Hinton agar (MHA). After incubation at 37 °C for 24 h, the colonies were counted and CFU/ml was calculated. The tests were done in three independent experiments.

[1] = system: L929 mouse fibroblast cells; assay: In vitro cytotoxicity, MTT assay; assay type: cell-based; conditions: 0.98–250 µg/ml, 24 h
Protocol: The cytotoxicity of A11 was evaluated by the 3-(4,5 dimethylthiazol-2-yl)-2,5-diphenyltetrazolium bromide (MTT) assay. L929 mouse fibroblast cells were cultured in Dulbecco's Modified Eagle Medium (DMEM) supplemented with 1% (v/v) of 100 IU/ml penicillin/streptomycin and 10% (v/v) fetal bovine serum (FBS). The cells were maintained in an air atmosphere containing the 5% CO2 under high humidity at 37 °C. L929 cell lines were seeded into a sterile 96-well plate (1 × 10^4 cells/well) then incubated overnight and treated with different concentrations of A11 (0.98–250 µg/ml) for 24 h. Media were removed, and cultured cells were incubated with 100 µl of MTT solution (4 mg/ml) for 4 h at 37 °C. After removal of MTT solution, the formed formazan was dissolved in 100 µl DMSO. Absorbance was measured by microplate reader at 570 nm; untreated cells served as negative control and melittin-treated cells as a positive control. Cell viability was determined following this equation: Cell viability%=ODTreated/ODControl×100

[2] = system: S. Typhimurium ATCC 13311; assay type: cell-based, Salmonella enterica serovar Typhimurium; conditions: ATCC 13311, 24 h
Protocol: Two-fold serial dilutions (0.98–250 μg/ml) of A11 with various concentrations of MgCl2 and NaCl (1 mM MgCl2, 5 mM MgCl2, 1% NaCl, 3% NaCl, 5% NaCl and 10% NaCl) were prepared and incubated at 37 °C for 60 min. Then, 50 μl of A11 in different salt concentrations were incubated with 50 μl of S. Typhimurium ATCC 13311 suspension (approximately 1 × 10^7 CFU/ml) at 37 °C with shaking. After 24 h, MICs were determined; all experiments were done in triplicate.

[3] = system: Pseudomonas aeruginosa ATCC 27853; assay type: cell-based
Source text: (§1) All tests were done in triplicate.

[4] = system: Listeria monocytogenes 10403s; assay type: cell-based; conditions: 10403s
Source text: as §1

[5] = system: Staphylococcus epidermidis ATCC 12228; assay type: cell-based
Source text: as §1

[6] = system: Bacillus cereus ATCC 11778; assay type: cell-based
Source text: as §1

[7] = system: S. Typhimurium ATCC 13311; assay: Effect of temperature on MIC; assay type: cell-based, Salmonella enterica serovar Typhimurium
Protocol: Two-fold serial dilutions (0.98–250 μg/ml) of A11 peptide were prepared and pre-incubated for 60 min at one of various temperatures (40 °C, 60 °C, 80 °C and 100 °C), and then cooled to 4 °C. After 30 min, 50 μl of heated peptide solutions were cultured with 50 μl of S. Typhimurium ATCC 13311 suspensions (approximately 1 × 10^7 CFU/ml). After 24 h incubation at 37 °C, MICs were determined; all experiments were done in triplicate.

[8] = system: human red blood cells (hRBCs); assay: Hemolysis assay; assay type: cell-based
Protocol: The toxicity of all peptide derivatives toward human red blood cells (hRBCs) was investigated by evaluating the amount of hemoglobin released after exposure to peptide. Briefly, hRBCs (blood group O) were collected from a healthy adult volunteer into a heparin-coated polycarbonate tube. The sample was centrifuged for 5 min at 1000g to separate erythrocytes from buffy coat and plasma. The erythrocytes were washed at least three times with 1 × PBS and centrifuged for 5 min at 1000g or until supernatant was clear. The sample was resuspended in PBS to obtain 2% (v/v) hRBCs. To determine hRBC lysis, hRBC suspensions were incubated with equal volumes of various concentrations of peptide (0.98–250 µg/ml) for 1 h at 37 °C. Intact hRBCs were centrifuged for 5 min at 1000g, supernatants were transferred into new 96-well plates, and absorbance was measured at OD 405 nm. Untreated hRBCs (in PBS only) served as negative control (ODNegative) and hRBCs treated with 0.1% Triton X-100 as positive control (ODTritonX-100). Absorbance of samples was converted to percentage hemolysis according to the equation: Hemolysis%=ODSample-ODNegative/ODTriton X-100-ODNegative×100

## WVKKVARKVVKIGRKVAR-NH2 [A11]
S. Typhimurium ATCC13311
  killing of S. Typhimurium within 6 h: more than 99%
[1]
  cytotoxicity toward L929 cells (cell viability, MTT): no cytotoxic activity; also recorded: no cytotoxic effect
[2]
  MIC in 1 mM MgCl2: 15.63 µg/mL
  MIC in 5 mM MgCl2: 31.25 µg/mL
  MIC in 1% NaCl: 15.63 µg/mL
  MIC in 3% NaCl: 125 µg/mL
  MIC in 5% NaCl: 250 µg/mL
  MIC in 10% NaCl: > 250 µg/mL
[3]; ATCC 27853, 18 h
  MBC: 62.5 µg/mL
[3]; ATCC 27853, 24 h
  MIC: 31.25 µg/mL
[4]; 18 h
  MBC: 125 (125) µg/ml
[4]; 24 h
  MIC: 125 (125) µg/ml
[5]; ATCC 12228, 18 h
  MBC: 31.25 µg/mL
[5]; ATCC 12228, 24 h
  MIC: 15.63 µg/mL
[6]; ATCC 11778, 18 h
  MBC: 250 (250) µg/ml
[6]; ATCC 11778, 24 h
  MIC: 250 (250) µg/ml
[7]; peptide pre-incubated 60 min at 40 °C, cooled to 4 °C, then 24 h at 37 °C with bacteria, triplicate
  MIC after 40 °C: 15.63 µg/mL
[7]; peptide pre-incubated 60 min at 60 °C, cooled to 4 °C, then 24 h at 37 °C with bacteria, triplicate
  MIC after 60 °C: 15.63 µg/mL
[7]; peptide pre-incubated 60 min at 80 °C, cooled to 4 °C, then 24 h at 37 °C with bacteria, triplicate
  MIC after 80 °C: 15.63 µg/mL
[7]; peptide pre-incubated 60 min at 100 °C, cooled to 4 °C, then 24 h at 37 °C with bacteria, triplicate
  MIC after 100 °C: 15.63 µg/mL
[7]; various temperatures from 40 to 100 °C for 1 h
  MIC after heat treatment, same value at each temperature: 15.63 µg/mL
[8]
  hemolytic activity at the MIC concentration: less than 2%
